Test: molar heat capacity at constant pressure; xn = mol fraction of the nth substance listed
Details: 100 kPa, Liquid, Small sample (50 mg) DSC

CCCCn1cc[n+](C)c1C.F[B-](F)(F)F [1-butyl-2,3-dimethylimidazolium tetrafluoroborate] + CCCCn1cc[n+](C)c1.F[B-](F)(F)F
molar heat capacity at constant pressure [J/K/mol]
Details | 293.15 K | 298.15 K | 303.15 K | 308.15 K
x1 = 0.0944 | 372.33 | 374.56 | 376.3 | 378.14
x1 = 0.1139 | 374.5 | 376.61 | 378.27 | 379.93
x1 = 0.1685 | 380.51 | 382.42 | 383.87 | 385.43
x1 = 0.1964 | 383.54 | 385.39 | 386.73 | 388.21
x1 = 0.2219 | 386.3 | 388.04 | 389.27 | 390.78
x1 = 0.2761 | 391.8 | 393.45 | 394.59 | 396.01
x1 = 0.325 | 396.42 | 397.97 | 399.09 | 400.41
x1 = 0.3616 | 399.58 | 401.14 | 402.27 | 403.61
x1 = 0.4192 | 404.04 | 405.54 | 406.68 | 408.07
x1 = 0.4769 | 407.66 | 409.23 | 410.42 | 411.83
x1 = 0.5228 | 410.01 | 411.58 | 412.83 | 414.29
x1 = 0.5749 | 412.12 | 413.7 | 415.09 | 416.68
x1 = 0.6325 | 413.66 | 415.36 | 416.86 | 418.94
x1 = 0.6877 | 414.45 | 416.32 | 418.24 | 420.31
x1 = 0.7386 | 414.74 | 416.82 | 419.32 | 421.29
x1 = 0.7922 | 414.58 | 416.97 | 419.35 | 421.84
x1 = 0.8479 | 414.36 | 416.75 | 419.41 | 422.19
x1 = 0.8832 | 413.81 | 416.53 | 419.16 | 421.93
x1 = 1 | 413.03 | 416.01 | 418.84 | 421.7
